Results reported in ChEMBL document CHEMBL4837258, “Discovery of Novel UDP-N-Acetylglucosamine Acyltransferase (LpxA) Inhibitors with Activity against Pseudomonas aeruginosa” (J Med Chem, 2021).
≈ marks a conversion by molar mass, not a printed value.

Legend:
[1] = Aqueous solubility of compound incubated for 90 mins under shaking condition; assay type: physicochemical; settings: buffer
physchem = settings: 1-octanol/phosphate buffer, pH 7.4
[2] = Volume of distribution at steady state in CD1 mouse at 3 mg/kg, iv measured upto 7 hrs by LC-MS/MS analysis; assay type: ADME, organism-based; settings: in vivo, read-out: Vdss
[3] = Volume of distribution at steady state in CD1 mouse at 85 mg/kg, iv measured upto 7 hrs by LC-MS/MS analysis; assay type: ADME, organism-based; settings: in vivo, read-out: Vdss
[4] = Volume of distribution at steady state in CD1 mouse at 3 mg/kg, iv pretreated with ABT followed by compound treatment and measured upto 7 hrs by LC-MS/MS analysis; assay type: ADME, organism-based; settings: in vivo, read-out: Vdss
[5] = Oral bioavailability in CD1 mouse at 5 mg/kg measured upto 7 hrs by LC-MS/MS analysis; assay type: ADME, organism-based; settings: in vivo
[6] = AUCinfinity in CD1 mouse at 3 mg/kg, iv measured upto 7 hrs by LC-MS/MS analysis; assay type: ADME, organism-based; design: route intravenous, dose 3 mg/kg, time <=7; settings: in vivo
[7] = AUCinfinity in CD1 mouse at 85 mg/kg, iv measured upto 7 hrs by LC-MS/MS analysis; assay type: ADME, organism-based; design: route intravenous, dose 85 mg/kg, time <=7; settings: in vivo
[8] = AUCinfinity in CD1 mouse at 3 mg/kg, iv pretreated with ABT followed by compound treatment and measured upto 7 hrs by LC-MS/MS analysis; assay type: ADME, organism-based; design: route intravenous, dose 3 mg/kg, time <=7; settings: in vivo
[9] = AUCinfinity in CD1 mouse at 5 mg/kg, po pretreated with ABT followed by compound treatment and measured upto 7 hrs by LC-MS/MS analysis; assay type: ADME, organism-based; design: route oral, dose 5 mg/kg, time <=7; settings: in vivo
[10] = Volume of distribution at steady state in CD1 mouse at 1 mg/kg, iv pretreated with ABT followed by compound treatment and measured upto 7 hrs by LC-MS/MS analysis; assay type: ADME, organism-based; settings: in vivo, read-out: Vdss
[11] = Volume of distribution at steady state in CD1 mouse at 5 mg/kg, iv pretreated with ABT followed by compound treatment and measured upto 7 hrs by LC-MS/MS analysis; assay type: ADME, organism-based; settings: in vivo, read-out: Vdss
[12] = Oral bioavailability in CD1 mouse at 3 mg/kg pretreated with ABT followed by compound treatment and measured upto 7 hrs by LC-MS/MS analysis; assay type: ADME, organism-based; settings: in vivo
[13] = Oral bioavailability in CD1 mouse at 30 mg/kg pretreated with ABT followed by compound treatment and measured upto 7 hrs by LC-MS/MS analysis; assay type: ADME, organism-based; settings: in vivo
[14] = AUCinfinity in CD1 mouse at 1 mg/kg, iv pretreated with ABT followed by compound treatment and measured upto 7 hrs by LC-MS/MS analysis; assay type: ADME, organism-based; design: route intravenous, dose 1 mg/kg, time <=7; settings: in vivo
[15] = AUCinfinity in CD1 mouse at 5 mg/kg, iv pretreated with ABT followed by compound treatment and measured upto 7 hrs by LC-MS/MS analysis; assay type: ADME, organism-based; design: route intravenous, dose 5 mg/kg, time <=7; settings: in vivo
[16] = AUCinfinity in CD1 mouse at 3 mg/kg, po pretreated with ABT followed by compound treatment and measured upto 7 hrs by LC-MS/MS analysis; assay type: ADME, organism-based; design: route oral, dose 3 mg/kg, time <=7; settings: in vivo
[17] = AUCinfinity in CD1 mouse at 30 mg/kg, po pretreated with ABT followed by compound treatment and measured upto 7 hrs by LC-MS/MS analysis; assay type: ADME, organism-based; design: route oral, dose 30 mg/kg, time <=7; settings: in vivo

solubility at […] [1] [µg/mL]	logD at 2 h, 25 µM (physchem)	SMILES	other results
340 (≈ 820 µM)	1.4	N#Cc1ccc(CN(Cc2nnc(N)o2)C(=O)CSc2ccccc2Cl)cn1	–
60 (≈ 123 µM)	2.4	N#Cc1cc(F)c(CN(Cc2nnc(N)o2)C(=O)CSc2cc(F)cc(F)c2Cl)c(F)c1	–
90 (≈ 187 µM)	1.6	N#Cc1ccc(CN(Cc2nnc(N)o2)C(=O)CSc2ccccc2OC(F)(F)F)c(F)c1	–
–	3	[2H]C([2H])(Oc1cc(F)cc(F)c1C([2H])([2H])C([2H])([2H])[2H])C(=O)N(Cc1nnc(N)o1)Cc1ccc(C#N)cc1F	–
–	2.5	CCc1ccccc1SCC(=O)N(Cc1ccc(C#N)cc1)Cc1nnc(N)o1	–
460 (≈ 908 µM)	2	[2H]C([2H])(Oc1cc(F)cc(F)c1C([2H])([2H])C([2H])([2H])[2H])C(=O)N(Cc1nnc(N)o1)Cc1ccc(S(N)(=O)=O)cc1F	Vd [2]: 0.34 L/kg; Vd [3]: 10.3 L/kg; Vd [4]: 0.31 L/kg; bioavailability [5]: 7.4%; AUC(0-inf) [6]: 62100 ng·h/mL; AUC(0-inf) [7]: 24000 ng·h/mL; AUC(0-inf) [8]: 35300 ng·h/mL; AUC(0-inf) [9]: 7690 ng·h/mL
–	2.1	[2H]C([2H])(Oc1cc(F)cc(F)c1C([2H])([2H])C([2H])([2H])[2H])C(=O)N(Cc1ccc(C#N)nc1)Cc1nnc(N)o1	–
–	1.5	N#Cc1ccc(CN(Cc2nnc(N)o2)C(=O)CCc2ccccc2)cn1	–
120 (≈ 290 µM)	2	N#Cc1ccc(CN(Cc2nnc(N)o2)C(=O)CSc2ccccc2Cl)cc1	–
–	2.1	Nc1nnc(CN(Cc2ccc(S(N)(=O)=O)cc2F)C(=O)COc2cc(F)cc(F)c2C2CC2)o1	–
150 (≈ 348 µM)	2.2	Nc1nnc(CN(Cc2ccc(O)nc2)C(=O)COc2cc(F)cc(F)c2C2CC2)o1	–
–	3	CCc1c(F)cc(F)cc1O[C@H](C)C(=O)N(Cc1nnc(N)o1)Cc1ccc(C#N)cc1F	–
–	2.2	N#Cc1ccc(CN(Cc2nnc(N)o2)C(=O)COc2cc(F)cc(F)c2C2CC2)cn1	–
–	2.1	CCc1c(F)cc(F)cc1OCC(=O)N(Cc1nnc(N)o1)Cc1ccc(S(N)(=O)=O)cc1F	–
–	1.4	N#Cc1ccc(CN(Cc2nnc(N)o2)C(=O)COc2cc(F)cc(F)c2Cl)cn1	–
330 (≈ 632 µM)	1.8	Nc1nnc(CN(Cc2ccc(S(N)(=O)=O)cc2F)C(=O)CSc2cc(F)cc(F)c2Cl)o1	–
90 (≈ 188 µM)	2.3	N#Cc1ccc(CN(Cc2nnc(N)o2)C(=O)CSc2ccccc2CC(F)(F)F)c(F)c1	–
–	1.1	N#Cc1ccc(CN(Cc2nnc(N)o2)C(=O)CSc2ncccc2Cl)cn1	–
–	2.8	CCc1c(F)cc(F)cc1OCC(=O)N(Cc1ccc(C#N)cc1)Cc1nnc(N)o1	Vd [10]: 3.97 L/kg; Vd [11]: 3.3 L/kg; bioavailability [12]: 48.6%; bioavailability [13]: 138%; AUC(0-inf) [14]: 218 ng·h/mL; AUC(0-inf) [15]: 1040 ng·h/mL; AUC(0-inf) [16]: 323 ng·h/mL; AUC(0-inf) [17]: 9180 ng·h/mL
–	2.7	CCc1c(F)cc(F)cc1OCC(=O)N(Cc1nnc(N)o1)Cc1ccc(C#N)cc1F	–
–	2.6	N#Cc1ccc(CN(Cc2nnc(N)o2)C(=O)CSc2cc(F)cc(F)c2Cl)c(F)c1	–
850 (≈ 2130 µM)	1	N#Cc1ccc(CN(Cc2nnc(N)o2)C(=O)COc2ccccc2Cl)cn1	–
